Data as given in patent publication US9139585B2 (Merck Sharp & Dohme Corp., priority 2011, dated 2015).
Like-named read-outs stand apart in the source and are kept apart here.

How the values were obtained:
hROMK (hKir1.1) = hROMK (hKir1.1) (Homo sapiens (Human), UniProt P48048); experiment: Thallium Flux Assay (ROMK channel functional thallium flux, FLIPR-Tetra); type: cell-based
Experimental: Another ROMK functional assay makes use of the ability of thallium to permeate through open ROMK channels and increase the fluorescence of a dye previously loaded into the cells. Under control conditions, cells loaded with dye and exposed to thallium-containing medium display a time-dependent increase in fluorescence, the rate of which depends on number of functional channels. When cells are incubated in the presence of a channel inhibitor, the increase in fluorescence is attenuated in a concentration-dependent manner, and IC50 values of inhibition by compounds can be accurately determined. This assay has been established with cell lines expressing either human, or rat ROMK channels, and operates in 384-well format.
HEK293 cells stably expressing hROMK (hKir1.1) were grown at 37° C. in a 10% CO2 humidified incubator in complete growth media: Dulbecco's Modified Eagle Medium supplemented with non-essential amino acids, Penicillin/Streptomycin/Glutamine, G418 and FBS. At >80% confluency, the media was aspirated from the flask and the sample was rinsed with 10 ml Calcium/Magnesium-free PBS. […] To dislodge the cell, the side of the flask was gently banged with a hand. The cells were triturated completely and then transferred to 25 ml complete media. The sample was then centrifuged at 1,500 rpm for 6 minutes, followed by resuspension in complete growth media and then cell concentration was determined. […] Under ideal growth conditions and appropriate tissue culture practices, this cell line is stable for 40-45 passages.
FluxOR Kit Components (Invitrogen F10017)
• FluxOR™ Reagent (Component A) • FluxOR™ Assay Buffer (Component B)—10× Concentrate • PowerLoad™ Concentrate (Component C)—100× Concentrate • Probenecid (Component D)—Lyophilized sample is kept at −20° C. Water soluble, 100× after solubilization in 1 ml water. […] Store at 4° C. • Thallium sulfate (Tl2SO4) Concentrate (Component G)—50 mM in water. Store at 4° C. • DMSO (dimethyl sulfoxide, Component H)—1 ml (100%) Reagent Preparation— FluxOR Working Solutions • 1000× FluxOR™ Reagent: Reconstitute a vial of component A in 100 μl DMSO; Mix well; Store 10 μl aliquots at −20° C. • 1× FluxOR™ Assay Buffer: Dilute Component B 10-fold with water; Adjust pH to 7.4 with Hepes/NaOH; Filter and store at 4° C. • Probenecid/Assay Buffer: 100 ml of 1× FluxOR™ Assay Buffer; 1 ml of reconstituted component D; Store at 4° C. • Loading Buffer (per microplate): 10 μl 1000× FluxOR™ Reagent; 100 μl component C; 10 ml Probenecid/Assay Buffer • Compound Buffer (per microplate): 20 ml Probenecid/Assay Buffer; 0.3 mM ouabain (10 mM ouabain in water can be stored in amber bottle/aluminum foil at room temperature);
Test compound • 1× FluxOR™ Chloride-Free Buffer: Prepare 1× working solution in water. Can be stored at room temperature • Stimulant Buffer (prepared at 5× final concentration in 1× FluxOR™ Chloride-Free Buffer): 7.5 mM Thallium sulfate and 0.75 mM Potassium sulfate (to give a final assay concentration of 3 mM Thallium/0.3 mM Potassium). Store at 4° C. when not in use. If kept sterile, this solution is good for months. Assay Protocol—
The ROMK channel functional thallium flux assay is performed in 384 wells, using the FLIPR-Tetra instrument. HEK-hKir1.1 cells are seeded in Poly-D-Lysine microplates and kept in a 37° C.-10% CO2 incubator overnight. On the day of the experiment, the growth media is replaced with the FluxOR™ reagent loading buffer and incubated, protected from light, at ambient temperature (23-25° C.) for 90 min. The loading buffer is replaced with assay buffer±test compound followed by 30 min incubation at ambient temperature, where the Thallium/Potassium stimulant is added to the microplate.
• 1. Seed HEK-hKir1.1 cells (50 μl at 20,000 cells/well) in 384-well PDL coated Microplates • 2. Allow cells to adhere overnight in humidified 37° C./10% CO2 incubator • 3. Completely remove cell growth media from microplate and replace with 25 μl loading buffer • 4.

Kir1.1 (ROMK1) = Kir1.1 (ROMK1) (Homo sapiens (Human), UniProt P48048); experiment: Electrophysiology Assay (whole cell voltage clamp, IonWorks Quattro); type: cell-based; details: read-out: EP Assay IC50
Source text: Several assays may be used to measure functional inhibition of the ROMK channel by compounds of the instant invention. One assay that can be used is an electrophysiology assay that measures the electrical current that is generated as potassium permeates through the channel.
Block of Kir1.1 (ROMK1) currents was examined by whole cell voltage clamp (Hamill et. al. Pfluegers Archives 391:85-100 (1981)) using the IonWorks® Quattro automated electrophysiology platform (Molecular Devices, Sunnyvale, Calif.). Chinese hamster ovary cells stably expressing Kir1.1 channels were maintained in T-75 flasks in cell culture media in a humidified 10% CO2 incubator at 37° C. Prior to an experiment, Kir1.1 expression was induced by overnight incubation with 1 mM sodium butyrate. On the day of the experiment, cells were dissociated with 2.5 ml of Versene™ (Invitrogen 15040-066) for approximately 6 minutes at 37° C. and suspended in 10 ml of bath solution containing (in mM): 150 NaCl, 10 KCl, 2.7 CaCl2, 0.5 MgCl2, 5 HEPES, pH 7.4. After centrifugation, the cell pellet was resuspended in approximately 4.0 ml of bath solution and placed in the IonWorks® instrument. The intracellular solution consisted of (in mM): 80 K gluconate, 40 KCl, 20 KF, 3.2 MgCl2, 3 EGTA, 5 Hepes, pH 7.4. Electrical access to the cytoplasm was achieved by perforation in 0.13 mg/ml amphotericin B for 4 minutes. Amphotericin B (Sigma A-4888) was prepared as a 40 mg/ml solution in DMSO.
Voltage protocols and current recordings were performed using the IonWorks® HT software/hardware system. Currents were sampled at 1 kHz. No correction for liquid junction potentials was used. The test pulse, consisting of a 100 ms step to 0 mV from a holding potential of −70 mV, followed by a 100 ms voltage ramp from −70 mV to +70 mV, was applied before and after a 6 minutes compound incubation period. Test compounds were prepared by diluting DMSO stock solutions into the bath solution at 3× the final concentration and placed in the instrument in 96-well polypropylene plates. Current amplitudes were measured using the IonWorks® software. To assess compound potency, the fractional block during the voltage step to 0 mV was calculated in Microsoft® Excel (Microsoft, Redmond, Calif.), and dose-response curves were fitted with Igor Pro 4.0 (WaveMetrics, Lake Oswego, Oreg.).

[1] = HEK293 cells stably expressing hROMK (hKir1.1), read-out: Thallium Flux Assay IC50
[2] = Chinese hamster ovary cells stably expressing Kir1.1, block during voltage step to 0 mV

Sequence of Kir1.1 (ROMK1) (P48048 whole entry, species assumed): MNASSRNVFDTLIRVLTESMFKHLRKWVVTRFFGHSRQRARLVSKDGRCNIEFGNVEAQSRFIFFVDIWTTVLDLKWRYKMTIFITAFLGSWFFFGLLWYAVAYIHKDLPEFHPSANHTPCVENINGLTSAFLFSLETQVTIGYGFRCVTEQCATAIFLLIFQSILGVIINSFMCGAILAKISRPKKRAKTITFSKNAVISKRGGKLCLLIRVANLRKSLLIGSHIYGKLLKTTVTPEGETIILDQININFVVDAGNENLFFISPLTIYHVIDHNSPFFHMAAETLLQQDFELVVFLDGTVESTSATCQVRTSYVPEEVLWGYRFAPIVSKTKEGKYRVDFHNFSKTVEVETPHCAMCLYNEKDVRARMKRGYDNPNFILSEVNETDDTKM
Sequence of hROMK (hKir1.1) (P48048 whole entry): as the sequence (P48048 whole entry, species assumed) above

Cc1nc(-n2cnnn2)ccc1[C@@H](O)CN1CCN(C[C@H](O)c2ccc3c(c2C)COC3=O)CC1 (single isomer, unassigned) [Example 36A]
IC50 (hROMK (hKir1.1); [1]): 441 nM | IC50 (Kir1.1 (ROMK1); [2]): 55 nM

Cc1nc(-n2cnnn2)ccc1[C@@H](O)CN1CCN(C[C@H](O)c2ccc3c(c2C)COC3=O)CC1 (single isomer, unassigned) [Example 36B]
IC50 (hROMK (hKir1.1); [1]): 171 nM | IC50 (Kir1.1 (ROMK1); [2]): 24 nM

Cc1c([C@@H](O)CN2CCN(C[C@H](O)c3ccc4c(c3)C[C@H](C)OC4=O)CC2)ccc2c1COC2=O (single isomer, unassigned) [Example 37A]
IC50 (hROMK (hKir1.1); [1]): 685 nM | IC50 (Kir1.1 (ROMK1); [2]): 71 nM

Cc1c([C@@H](O)CN2CCN(C[C@H](O)c3ccc4c(c3)C[C@H](C)OC4=O)CC2)ccc2c1COC2=O (single isomer, unassigned) [Example 37B]
IC50 (hROMK (hKir1.1); [1]): 48.5 nM | IC50 (Kir1.1 (ROMK1); [2]): 31.5 nM

Cc1c([C@@H](O)CN2CCN(C[C@H](O)c3ccc4c(c3)C[C@@H](C)OC4=O)CC2)ccc2c1COC2=O (single isomer, unassigned) [Example 38A]
IC50 (hROMK (hKir1.1); [1]): 68.5 nM | IC50 (Kir1.1 (ROMK1); [2]): 17.5 nM

Cc1c([C@@H](O)CN2CCN(C[C@H](O)c3ccc4c(c3)C[C@@H](C)OC4=O)CC2)ccc2c1COC2=O (single isomer, unassigned) [Example 38B]
IC50 (hROMK (hKir1.1); [1]): 33.4 nM | IC50 (Kir1.1 (ROMK1); [2]): 29 nM

Cc1c([C@@H](O)CN2CCN(C[C@@H](O)c3ccc4c(c3)CCS4(=O)=O)CC2)ccc2c1COC2=O (single isomer, unassigned) [Example 43A]
IC50 (hROMK (hKir1.1); [1]): 52.3 nM | IC50 (Kir1.1 (ROMK1); [2]): 95 nM

COc1cc(C(O)CN2CCN(CC(O)c3ccc4c(c3)C[C@H](C)OC4=O)CC2)ncc1C#N (single isomer, unassigned) [Example 44A]
IC50 (hROMK (hKir1.1); [1]): 704 nM | IC50 (Kir1.1 (ROMK1); [2]): 151 nM

COc1cc(C(O)CN2CCN(CC(O)c3ccc4c(c3)C[C@H](C)OC4=O)CC2)ncc1C#N (single isomer, unassigned) [Example 44B]
IC50 (hROMK (hKir1.1); [1]): 243 nM | IC50 (Kir1.1 (ROMK1); [2]): 18 nM

COc1cc(C(O)CN2C3COCC2CN(C[C@H](O)c2ccc4c(c2C)COC4=O)C3)ncc1C#N (stereo in doubt) [Example 25, (R)-6-(1-Hydroxy-2-(7-(2-hydroxy-2-(4-methyl-1-oxo-1,3-dihydroisobenzofuran-5-yl)ethyl)-3-oxa-7,9 diazabicyclo[3.3.1]nonan-9-yl)ethyl)-4-methoxynicotinonitrile]
IC50 (hROMK (hKir1.1); [1]): 20.5 nM | IC50 (Kir1.1 (ROMK1)): 110 nM

COc1cc(C(O)CN2C3COCC2CN(C[C@H](O)c2ccc4c(c2C)COC4=O)C3)ncc1C#N (stereo in doubt) [Example 26, (R)-6-(1-Hydroxy-2-(7-(2-hydroxy-2-(4-methyl-1-oxo-1,3-dihydroisobenzofuran-5-yl)ethyl)-3-oxa-7,9 diazabicyclo[3.3.1]nonan-9-yl)ethyl)-4-methoxynicotinonitrile]
IC50 (hROMK (hKir1.1); [1]): 49.2 nM | IC50 (Kir1.1 (ROMK1)): 71 nM

Cc1c([C@@H](O)CN2CCN(C[C@H](O)c3ccc4c(c3C)COC4=O)C3(CCCC3)C2)ccc2c1COC2=O [Example 1, 5,5′-{6,9-Diazaspiro[4.5]decane-6,9-diylbis[(1R)-1-hydroxyethane-2,1-diyl]}bis(4-methyl-2-benzofuran-1(3H)-one)]
IC50 (hROMK (hKir1.1); [1]): 311 nM | IC50 (Kir1.1 (ROMK1); [2]): 134 nM

Cc1c([C@@H](O)CN2CCN(C[C@H](O)c3ccc4c(c3C)COC4=O)C(C)(C)C2)ccc2c1COC2=O [Example 2, 5,5′-{(2,2-dimethylpiperazine-1,4-diyl)bis[(1R)-1-hydroxyethane-2,1-diyl]}bis(4-methyl-2-benzofuran-1(3H)-one)]
IC50 (hROMK (hKir1.1); [1]): 113 nM | IC50 (Kir1.1 (ROMK1); [2]): 41 nM

Cc1c([C@@H](O)CN2C[C@@H]3C[C@H]2CN3S(=O)(=O)c2ccc(C#N)cc2)ccc2c1COC2=O [Example 3, 4-((1S,4S)-5-((R)-2-Hydroxy-2-(4-methyl-1-oxo-1,3-dihydroisobenzofuran-5-yl)ethyl)-2,5-diazabicyclo[2.2.1]heptan-2-ylsulfonyl)benzonitrile]
IC50 (hROMK (hKir1.1); [1]): 636 nM | IC50 (Kir1.1 (ROMK1); [2]): 200 nM

Cc1nc(C(O)CN2C3CCC2C2CCC3N2C[C@H](O)c2ccc3c(c2C)COC3=O)ccc1C#N (stereo partly drawn) [Example 7, 6-(1-Hydroxy-2-{10-[(2R)-2-hydroxy-2-(4-methyl-1-oxo-1,3-dihydro-2-benzofuran-5-yl)ethyl]-9,10-diazatricyclo[4.2.1.1^2,5]dec-9-yl}ethyl)-2-methylpyridine-3-carbonitrile]
IC50 (hROMK (hKir1.1); [1]): 115 nM | IC50 (Kir1.1 (ROMK1); [2]): 45 nM

Cc1c([C@@H](O)CN2[C@@H]3CC[C@H]2CN(c2ccc(C#N)cn2)C3)ccc2c1COC2=O [Example 10, 6-((1R,5S)-8-((R)-2-Hydroxy-2-(4-methyl-1-oxo-1,3-dihydroisobenzofuran-5-yl)ethyl)-3,8-diazabicyclo[3.2.1]octan-3-yl)nicotinonitrile]
IC50 (hROMK (hKir1.1); [1]): 640 nM | IC50 (Kir1.1 (ROMK1); [2]): 316 nM

Cc1c([C@@H](O)CN2CCN(c3ccc(C#N)cn3)CC2)ccc2c1COC2=O [Example 11, (R)-6-(4-(2-Hydroxy-2-(4-methyl-1-oxo-1,3-dihydroisobenzofuran-5-yl)ethyl)piperazin-1-yl)nicotinonitrile]
IC50 (hROMK (hKir1.1); [1]): 743 nM | IC50 (Kir1.1 (ROMK1); [2]): 54 nM

Cc1c([C@@H](O)CN2[C@@H]3CC[C@H]2CN(C(=O)c2ccc(-n4cnnn4)nc2)C3)ccc2c1COC2=O [Example 12, 5-((R)-2-((1R,5S)-3-(6-(1H-Tetrazol-1-yl)nicotinoyl)-3,8-diazabicyclo[3.2.1]octan-8-yl)-1-hydroxyethyl)-4-methylisobenzofuran-1 (3H)-one]
IC50 (hROMK (hKir1.1); [1]): 342 nM | IC50 (Kir1.1 (ROMK1); [2]): 140 nM

Cc1c([C@@H](O)CN2C3CCC2C2CCC3N2C(=O)c2ccc(-n3cnnn3)nc2)ccc2c1COC2=O [Example 13]
IC50 (hROMK (hKir1.1); Thallium Flux Assay IC50): 985 nM | IC50 (Kir1.1 (ROMK1)): 130 nM

Cc1c([C@@H](O)CN2C[C@H]3CC[C@@H](C2)N3S(=O)(=O)c2ccc(-n3cnnn3)cc2)ccc2c1COC2=O [Example 16]
IC50 (hROMK (hKir1.1); Thallium Flux Assay IC50): 397 nM | IC50 (Kir1.1 (ROMK1)): 54 nM
